# Assay results taken from patent publication US12312332B2 (Merck Sharp & Dohme LLC., priority 2019, dated 2025).
# Target: T1, human OX2R (Homo sapiens, UniProt O43614)
# T1 construct: expressed in transfected cells; host or cells: Chinese hamster ovary (CHO) cells, kept under G418 selection
# T1 sequence (O43614 1-444): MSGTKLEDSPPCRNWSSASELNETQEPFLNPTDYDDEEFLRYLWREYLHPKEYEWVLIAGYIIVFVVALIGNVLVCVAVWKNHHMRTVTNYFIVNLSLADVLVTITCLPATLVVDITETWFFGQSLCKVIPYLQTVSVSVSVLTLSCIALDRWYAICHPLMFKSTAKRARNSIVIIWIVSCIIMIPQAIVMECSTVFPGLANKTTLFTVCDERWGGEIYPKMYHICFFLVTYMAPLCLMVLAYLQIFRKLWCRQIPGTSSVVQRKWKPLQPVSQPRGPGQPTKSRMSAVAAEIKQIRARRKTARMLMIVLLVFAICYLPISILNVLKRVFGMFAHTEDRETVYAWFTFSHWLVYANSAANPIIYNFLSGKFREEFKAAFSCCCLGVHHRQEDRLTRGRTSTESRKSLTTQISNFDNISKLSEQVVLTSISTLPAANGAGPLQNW
# Assay: IPOne (IP-One) orexin receptor agonist assay in CHO cells expressing human OX2R
# Type: cell-based
# Details: for EC50: CHO cells expressing human OX2R, IP-One detection, 2 hours incubation, four parameter logistic fit, read-out: OX2R Potency, EC50; for % max agonist effect (Emax): human OX2R, percentage of sample raw value/mean max effect (reference compound at 1 uM with 100% activity)
EC50,% max agonist effect (Emax),SMILES
242 nM,99.6%,"Cc1nnc(N2CC[C@H](NS(C)(=O)=O)[C@@H]2CO[C@H]2CC[C@@H](c3ccccc3)CC2)s1 (relative stereo) [Example 10, N-((CIS)-1-(5-methyl-1,3,4-thiadiazol-2-yl)-2-((((CIS)-4-phenylcyclohexyl)oxy)methyl)pyrrolidin-3-yl)methanesulfonamide]"
,100.5%,"CS(=O)(=O)N[C@H]1CCN(c2ncccc2O)[C@H]1CO[C@H]1CC[C@@H](c2ccccc2)CC1 [Example 137, N-((2R,3S)-1-(3-hydroxypyridin-2-yl)-2-((((CIS)-4-phenylcyclohexyl)oxy)methyl)pyrrolidin-3-yl)methanesulfonamide]"
> 10000 nM,57.5%,"CS(=O)(=O)N[C@H]1CCN(c2ccc(C(F)F)cc2F)[C@H]1CO[C@H]1CC[C@@H](c2ccccc2)CC1 [Example 22, N-((2R,3S)-1-(4-(difluoromethyl)-2-fluorophenyl)-2-((((CIS)-4-phenylcyclohexyl)oxy)methyl)pyrrolidin-3-yl)methanesulfonamide]"
29.3 nM,101.1%,"Cn1cc(F)c(=O)cc1N1CC[C@H](NS(C)(=O)=O)[C@@H]1CO[C@H]1CC[C@@H](c2ccccc2)CC1 [Example 88, N-((2R,3S)-1-(5-fluoro-1-methyl-4-oxo-1,4-dihydropyridin-2-yl)-2-((((CIS)-4-phenylcyclohexyl)oxy)methyl)pyrrolidin-3-yl)methanesulfonamide]"
1.4 nM,101.8%,"CS(=O)(=O)N[C@H]1CCN(c2ncc(F)c(O)c2F)[C@H]1CO[C@H]1CC[C@@H](c2cccc(F)c2)CC1 [Example 163, N-((2R,3S)-1-(3,5-difluoro-4-hydroxypyridin-2-yl)-2-((((CIS)-4-(3-fluorophenyl)cyclohexyl)oxy)methyl)pyrrolidin-3-yl)methanesulfonamide]"
32.5 nM,99.7%,"CS(=O)(=O)N[C@H]1CCCN(c2nccc(O)c2F)[C@H]1CO[C@H]1CC[C@@H](c2ccccc2)CC1 [Example 158, N-((2R,3S)-1-(3-fluoro-4-hydroxypyridin-2-yl)-2-((((CIS)-4-phenylcyclohexyl)oxy)methyl)piperidin-3-yl)methanesulfonamide]"
217 nM,99.6%,"CS(=O)(=O)N[C@H]1CCN(c2cncc(CO)c2)[C@H]1CO[C@H]1CC[C@@H](c2ccccc2)CC1 [Example 49, N-((2R,3S)-1-(5-(hydroxymethyl)pyridin-3-yl)-2-((((CIS)-4-phenylcyclohexyl)oxy)methyl)pyrrolidin-3-yl)methanesulfonamide]"
20.7 nM,101.7%,CS(=O)(=O)N[C@H]1CCN(c2ccc[n+]([O-])c2)[C@H]1CO[C@H]1CC[C@@H](c2ccccc2)CC1 [Example 134]
105 nM,100.0%,"Cn1ccnc1N1CC[C@H](NS(C)(=O)=O)[C@@H]1CO[C@H]1CC[C@@H](c2ccccc2)CC1 [Example 28, N-((2R,3S)-1-(1-methyl-1H-imidazol-2-yl)-2-((((CIS)-4-phenylcyclohexyl)oxy)methyl)pyrrolidin-3-yl)methanesulfonamide]"
70 nM,99.6%,"CS(=O)(=O)N[C@H]1CCN(c2ccc(C(F)(F)F)nc2)[C@H]1CO[C@H]1CC[C@@H](c2ccccc2)CC1 [Example 34, N-((2R,3S)-2-((((CIS)-4-phenylcyclohexyl)oxy)methyl)-1-(6-(trifluoromethyl)pyridin-3-yl)pyrrolidin-3-yl)methanesulfonamide]"
1190 nM,93%,"COC(=O)c1csc(N2CC[C@H](NS(C)(=O)=O)[C@@H]2CO[C@H]2CC[C@@H](c3ccccc3)CC2)n1 [Example 103, methyl 2-((2R,3S)-3-(methylsulfonamido)-2-((((CIS)-4-phenylcyclohexyl)oxy)methyl)pyrrolidin-1-yl)thiazole-4-carboxylate]"
7.1 nM,100.2%,"COc1cccnc1N1CC[C@H](NS(C)(=O)=O)[C@@H]1CO[C@H]1CC[C@@H](c2ccccc2)CC1 [Example 141, N-((2R,3S)-1-(3-methoxypyridin-2-yl)-2-((((CIS)-4-phenylcyclohexyl)oxy)methyl)pyrrolidin-3-yl)methanesulfonamide]"
444 nM,99.0%,"CS(=O)(=O)N[C@H]1CCN(c2cncs2)[C@H]1CO[C@H]1CC[C@@H](c2ccccc2)CC1 [Example 26, N-((2R,3S)-2-((((CIS)-4-phenylcyclohexyl)oxy)methyl)-1-(thiazol-5-yl)pyrrolidin-3-yl)methanesulfonamide]"
8490 nM,57.0%,"CS(=O)(=O)N[C@H]1CCN(c2ccc(F)c(C(F)F)c2)[C@H]1CO[C@H]1CC[C@@H](c2ccccc2)CC1 [Example 21, N-((2R,3S)-1-(3-(difluoromethyl)-4-fluorophenyl)-2-((((CIS)-4-phenylcyclohexyl)oxy)methyl)pyrrolidin-3-yl)methanesulfonamide]"
0.3 nM,99.6%,"C[C@@H]1C[C@H](NS(=O)(=O)N(C)C)[C@H](CO[C@H]2CC[C@@H](c3cccc(F)c3)CC2)N1c1cc(O)c(F)cn1 [Example 94, N′-((2R,3S,5R)-1-(5-fluoro-4-hydroxypyridin-2-yl)-2-((((CIS)-4-(3-fluorophenyl)cyclohexyl)oxy)methyl)-5-methylpyrrolidin-3-yl)-N,N-dimethyl-sulfamide]"
258 nM,97.7%,"CS(=O)(=O)N[C@H]1CCN(c2cncc(O)n2)[C@H]1CO[C@H]1CC[C@@H](c2ccccc2)CC1 [Example 149, N-((2R,3S)-1-(6-hydroxypyrazin-2-yl)-2-((((CIS)-4-phenylcyclohexyl)oxy)methyl)pyrrolidin-3-yl)methanesulfonamide]"
393 nM,99.6%,"Cn1c(N2CC[C@H](NS(C)(=O)=O)[C@@H]2CO[C@H]2CC[C@@H](c3ccccc3)CC2)cccc1=O [Example 116, N-((2R,3S)-1-(1-methyl-6-oxo-1,6-dihydropyridin-2-yl)-2-((((CIS)-4-phenylcyclohexyl)oxy)methyl)pyrrolidin-3-yl)methanesulfonamide]"
331 nM,101.1%,"CS(=O)(=O)N[C@H]1CCN(c2ncc(F)cc2F)[C@H]1CO[C@H]1CC[C@@H](c2ccccc2)CC1 [Example 63, N-((2R,3S)-1-(3,5-difluoropyridin-2-yl)-2-((((CIS)-4-phenylcyclohexyl)oxy)methyl)pyrrolidin-3-yl)methanesulfonamide]"
152 nM,101.2%,"Cn1cc(N2CC[C@H](NS(C)(=O)=O)[C@@H]2CO[C@H]2CC[C@@H](c3ccccc3)CC2)nn1 (relative stereo) [Example 8, N-((CIS)-1-(1-methyl-1H-1,2,3-triazol-4-yl)-2-((((CIS)-4-phenylcyclohexyl)oxy)methyl)pyrrolidin-3-yl)methanesulfonamide]"
146 nM,101.0%,"CS(=O)(=O)N[C@H]1CCN(c2ncns2)[C@H]1CO[C@H]1CC[C@@H](c2ccccc2)CC1 [Example 33, N-((2R,3S)-2-((((CIS)-4-phenylcyclohexyl)oxy)methyl)-1-(1,2,4-thiadiazol-5-yl)pyrrolidin-3-yl)methanesulfonamide]"
0.23 nM,101.6%,"CS(=O)(=O)N[C@H]1CCN(c2nccc(O)c2F)[C@H]1CO[C@H]1CC[C@@H](c2cccc(F)c2)CC1 [Example 96, N-((2R,3S)-1-(3-fluoro-4-hydroxypyridin-2-yl)-2-((((CIS)-4-(3-fluorophenyl)cyclohexyl)oxy)methyl)pyrrolidin-3-yl)methanesulfonamide]"
0.95 nM,97.7%,"CS(=O)(=O)N[C@H]1CCN(c2cc(O)c(F)cn2)[C@H]1CO[C@H]1CC[C@@H](c2ccccc2)CC1 [Example 151, N-((2R,3S)-1-(5-fluoro-4-hydroxypyridin-2-yl)-2-((((CIS)-4-phenylcyclohexyl)oxy)methyl)pyrrolidin-3-yl)methanesulfonamide]"

SMILES,EC50,% max agonist effect (Emax)
"CS(=O)(=O)N[C@H]1CCN(c2cncc(-c3ccccc3)c2)[C@H]1CO[C@H]1CC[C@@H](c2ccccc2)CC1 (relative stereo) [Example 1, N-((CIS)-2-((((CIS)-4-Phenylcyclohexyl)oxy)methyl)-1-(5-phenylpyridin-3-yl)pyrrolidin-3-yl)methanesulfonamide]",> 10000 nM,35.7%
"Cn1cnc(N2CC[C@H](NS(C)(=O)=O)[C@@H]2CO[C@H]2CC[C@@H](c3ccccc3)CC2)n1 [Example 14, N-((2R,3S)-1-(1-Methyl-1H-1,2,4-triazol-3-yl)-2-((((CIS)-4-phenylcyclohexyl)oxy)methyl)-pyrrolidin-3-yl)methanesulfonamide]",3720 nM,87.9%
"Cc1ccncc1N1CC[C@H](NS(C)(=O)=O)[C@@H]1CO[C@H]1CC[C@@H](c2ccccc2)CC1 [Example 81, N-((2R,3S)-1-(4-Methylpyridin-3-yl)-2-((((CIS)-4-phenylcyclohexyl)oxy)methyl)pyrrolidin-3-yl)methanesulfonamide]",24.5 nM,100.9%
